Holding throughout (format): in vivo
One assay deals with Meloidogyne incognita. Put plainly: Vine field trial, number of nematodes in soil after foliar (I-2) or drench (imidacloprid) application. Conditions: for Activity against Meloidogyne incognita, number of nematodes, 0 d: vines Thompson Seedless, prior to treatment, (I-2) SC 240 12.5 fl oz per 605 plants foliar, imidacloprid SC 550 14 fl oz drench; for Activity against Meloidogyne incognita, number of nematodes, 30 d / Activity against Meloidogyne incognita, number of nematodes, 60 d: vines, (I-2) 12.5 fl oz per 605 plants foliar (2 applications, 32 d interval), imidacloprid 14 fl oz drench; for Activity against Meloidogyne incognita, number of nematodes, 30 d: 30 days after first treatment; for Activity against Meloidogyne incognita, number of nematodes, 60 d: 60 days after first treatment. Here is the method: (§1) In 5 replications, in each case 15 vines of the cultivar “Thompson Seedless 1948” are treated against soil-dwelling nematodes using a fogger. Here, a tank mix of the active compound (I-2) (SC 240) is applied after foliar application at the stated application rates with 0.25% of the adjuvant Activator 90, in comparison to imidacloprid (SC 550) after drench application by micro-irrigation injection. The water application rate is 75 gallons per acre=605 plants. Two applications of active compound (I-2) are carried out at an interval of 32 days.
(§2) Evaluation is carried out prior to the treatment and 30 days and 60 days after the first treatment by counting the number of nematodes in 500 g of soil.

In the next assay the test system is Mesocriconema xenoplax. The description is as above. The conditions noted are these: vines, (I-2) 12.5 fl oz per 605 plants foliar, imidacloprid 14 fl oz drench; for Activity against Mesocriconema xenoplax, number of nematodes, 30 d: 30 days after first treatment; for Activity against Mesocriconema xenoplax, number of nematodes, 60 d: 60 days after first treatment; for Activity against Mesocriconema xenoplax, number of nematodes, 0 d: prior to treatment. The protocol:
as §1, §2

The subject of a further assay is Pratylenchus sp. The description is as above. Conditions: vines, (I-2) 12.5 fl oz per 605 plants foliar, imidacloprid 14 fl oz drench; for Activity against Pratylenchus sp., number of nematodes, 30 d: 30 days after first treatment; for Activity against Pratylenchus sp., number of nematodes, 60 d: 60 days after first treatment; for Activity against Pratylenchus sp., number of nematodes, 0 d: prior to treatment. The protocol: as §1, §2

The test system of assay [1] is Tylenchulus semipenetrans. Put plainly: Foliar application of (I-2) to citrus in pots for control of Tylenchulus semipenetrans. The conditions noted are these: individual trees. Here is the method: Foliar Application of (I-2) to Citrus in Pots for Control of Tylenchulus semipenetrans
Treatments: 15 trees sprayed with (I-2=Movento), 15 trees sprayed with water (presample each pot); 25 mL/tree
Add Tylenchulus semipenetrans larvae to all pots. The following day take trees out of greenhouse. Cover top of pot to exclude spray from soil. (I-2) (SC 240) is sprayed in a concentration of 2.6 ml plus 2.5 ml adjuvant MSO (methylated seed oil), (100% active w/v, added to the spray solution at 0.25% v/v) per liter sprac solution. Spray canopy from two sides of trees to runoff with a 2 gallon “Sure Spray” pump sprayer (Chapin Mfg.) using a nozzle that delivers a cone shape spray pattern. Allow material to dry before returning plants to greenhouse. Repeat in 14 days.
For this citrus nematode trial, 5-year old Volkamer lemon seedlings are infested with T. semipenetrans obtained from the field and maintained in the greenhouse (25-32° C.) for use in pesticide trials. Trees used in the experiment are not treated with nematicidal compounds. The seedlings are growing in a 50:50 mixture of Astatula sand (97% sand) and Pro-mix potting mixture in rectangular pots (10×10×30 cm). Trees are irrigated normally, but receive no fertilizer or pesticide treatments other than (I-2) during the experiment. Effects on citrus nematode are evaluated by soil sampling 30 days and 60 days after treatment.
Tylenchulus semipenetrans raw data (juvenile and male nematodes per […] soil. Pi is initial population before treatment, Pf is final population at one and two months post treatment).

Another assay relates to Meloidogyne arenaria. Put plainly: Tomato pot trial, root-knot nematode galling index and eggs per root system. Conditions: for Galling index: 78 d after first treatment, mean; for Appearance of root system (galls, egg masses, rot): visual, at harvest. The protocol:
The experiment is carried out in a shade house at a temperature of around 78 F (76-80 F). The experiment is conduced in a complete randomize design with seven treatments and six replications. 6 inch pots are filled with 1,500 g of steam pasteurized (194 F for 2:30 h) field soil per pot and a 4 weeks old tomato cv. Rutgers transplant is added. The soil is an Arredondo fine sand with ca. 92% sand and 1% om. The soil is taken from a site with no history of root-knot nematode infestation.
The first preventive treatments of Vydate CLV and (I-2) (SC 240; adjuvant: Dyne-Amic (a blend of nonionic and organosilicone surfactants and MSO), 99% active w/v, added 0.25% v/v) are applied as foliar spray. Fosthiazate 900 is applied as a soil drench in 40 gallons water per acre. The second preventive application of Vydate and (I-2) are sprayed over foliage 7 days after l^st treatment. The soil is inoculated by adding 5,000 eggs/pot of Meloidogyne arenaria one day after the 2nd treatment. The curative treatments of Vydate and (I-2) are applied as a foliar spray on 21 and 28 days after inoculation with Meloidogyne arenaria.
All (I-2) and Vydate treatments are applied in 40 gallons of water/acre by a CO2 pressurized sprayer with a single 8003 VS TeeJet noozle. The tomato plants for each treatment are lined up in a row with the spray directed over their foliage until noticeable drip.
78 days after the 1st treatment the plants are harvested. Each root system is evaluated for the percentage of root-knot nematode galling and eggs per root system. A 1 to 6 scale is used for estimating the number galls per root system as follows: 1=no galls on the root system; 2=10%; 3=11 to 30%; 4=31 to 70%; 5=71 to 90%; 6=100% root system galled. Following the determination of percentage of galling the roots are processed in a bleach solution to dissolve away the gelatinous matrix surrounding the eggs. Individual eggs are collection on a 500 mesh sieve and poured into a counting dish for determining their numbers.

Setting [2] is: preventive treatment, tomato cv. Rutgers, scale 1 to 6 (1 = no galls, 6 = 100% of root system galled).
Setting [3] is: preventive treatment, tomato, 5,000 eggs/pot inoculated.

“And” between values parts separate entries of the source, which are not always exact repeats. Equal values may be shown once.

On to `CCOC(=O)OC1=C(c2cc(C)ccc2C)C(=O)N[C@]12CC[C@@H](OC)CC2` [(I-2)], for which, in the assay on Meloidogyne incognita, the “Activity against Meloidogyne incognita, number of nematodes, 0 d” value is 312 nematodes in 500 g of soil; the “Activity against Meloidogyne incognita, number of nematodes, 30 d” value is on record as 140.8 nematodes in 500 g of soil; the “Activity against Meloidogyne incognita, number of nematodes, 60 d” value is reported as 178.8 nematodes in 500 g of soil. Besides, in the assay on Mesocriconema xenoplax, the “Activity against Mesocriconema xenoplax, number of nematodes, 30 d” value was 861.2 nematodes in 500 g of soil; the “Activity against Mesocriconema xenoplax, number of nematodes, 60 d” value is 942.8 nematodes in 500 g of soil; the “Activity against Mesocriconema xenoplax, number of nematodes, 0 d” value was 1817 nematodes in 500 g of soil. Moreover, in the assay with Pratylenchus sp., the “Activity against Pratylenchus sp., number of nematodes, 30 d” value is listed as 371.2 nematodes in 500 g of soil; the “Activity against Pratylenchus sp., number of nematodes, 60 d” value was 454 nematodes in 500 g of soil; the “Activity against Pratylenchus sp., number of nematodes, 0 d” value was 826 nematodes in 500 g of soil. In assay [1] (Volkamer lemon seedlings in pots, before treatment), the “Treat Pi (initial population before treatment)” value is 2412.5 juvenile and male nematodes per 100 cm^2 soil and 2100.0 juvenile and male nematodes per 100 cm^2 soil and 1700.0 juvenile and male nematodes per 100 cm^2 soil and 9237.5 juvenile and male nematodes per 100 cm^2 soil and 4180.0 juvenile and male nematodes per 100 cm^2 soil and 400.0 juvenile and male nematodes per 100 cm^2 soil and 4250.0 juvenile and male nematodes per 100 cm^2 soil (2×) and 1625.0 juvenile and male nematodes per 100 cm^2 soil and 125.0 juvenile and male nematodes per 100 cm^2 soil (2×) and 2190.0 juvenile and male nematodes per 100 cm^2 soil and 210.0 juvenile and male nematodes per 100 cm^2 soil and 2490.0 juvenile and male nematodes per 100 cm^2 soil and 250.0 juvenile and male nematodes per 100 cm^2 soil. The “Treat Pf (final population one month post treatment)” value in assay [1] ((I-2) SC 240 2.6 ml/l plus MSO foliar, repeated after 14 days, one month post treatment) is 168.83 juvenile and male nematodes per 100 cm^2 soil and 519.74 juvenile and 534.25 juvenile and 1440.00 juvenile and 2753.33 juvenile and 336.84 juvenile and 708.33 juvenile and 638.16 juvenile and 87.21 juvenile and 1803.37 juvenile and 1402.78 juvenile and 60.81 juvenile and 1448.86 juvenile and 86.21 juvenile and 54.35 juvenile. Besides, the “Treat Pf2 (final population two months post treatment)” value in assay [1] ((I-2) SC 240 2.6 ml/l plus MSO foliar, repeated after 14 days, two months post treatment) is 181.82 juvenile and male nematodes per 100 cm^2 soil and 380.95 juvenile and 338.71 juvenile and 1207.55 juvenile and 7807.69 juvenile and 347.46 juvenile and 1908.33 juvenile and 4122.22 juvenile and 175.44 juvenile and 1409.84 juvenile and 3205.36 juvenile and 92.59 juvenile and 1481.13 juvenile and 551.02 juvenile and 531.25 juvenile. Besides, the “Number of eggs/root system 78 d after first treatment” value (“Number of eggs/root system 78 d” for short) with Meloidogyne arenaria (curative treatment (21 and 28 days after inoculation), tomato) is given as 141,000 eggs/root system. This compound came in with a Galling index with Meloidogyne arenaria (curative treatment (21 and 28 days after inoculation), tomato, scale 1 to 6) of 4.5. In addition, the “Appearance of root system (galls, egg masses, rot)” value (“Appearance of root system” below) with Meloidogyne arenaria (curative treatment) was “little darkening or rotting appearance”. This compound also returned a Galling index with Meloidogyne arenaria (setting [2]) of 6.0. Moreover, in the assay on Meloidogyne arenaria (setting [3]), the “Number of eggs/root system 78 d” value was 421,600 eggs/root system. Besides, the “Appearance of root system” value in the assay with Meloidogyne arenaria (preventive treatment) is “numerous egg masses and coalesced galls”.
In the case of `O=[N+]([O-])NC1=NCCN1Cc1ccc(Cl)nc1` [Imidacloprid, reference compound], in the assay on Meloidogyne incognita, the “Activity against Meloidogyne incognita, number of nematodes, 0 d” value is recorded as 267 nematodes in 500 g of soil; the “Activity against Meloidogyne incognita, number of nematodes, 30 d” value was 171 nematodes in 500 g of soil; the “Activity against Meloidogyne incognita, number of nematodes, 60 d” value was 188 nematodes in 500 g of soil. In the assay with Mesocriconema xenoplax, the “Activity against Mesocriconema xenoplax, number of nematodes, 30 d” value is given as 808.4 nematodes in 500 g of soil; the “Activity against Mesocriconema xenoplax, number of nematodes, 60 d” value is on record as 958.46 nematodes in 500 g of soil; the “Activity against Mesocriconema xenoplax, number of nematodes, 0 d” value is 1863 nematodes in 500 g of soil. In addition, in the assay with Pratylenchus sp., the “Activity against Pratylenchus sp., number of nematodes, 30 d” value was 320 nematodes in 500 g of soil; the “Activity against Pratylenchus sp., number of nematodes, 60 d” value is reported as 319.6 nematodes in 500 g of soil; the “Activity against Pratylenchus sp., number of nematodes, 0 d” value is reported as 406 nematodes in 500 g of soil.
In the case of `CCOP(=O)(SC(C)CC)N1CCSC1=O` (stereo not drawn) [Fosthiazate, reference compound], the Galling index in the assay on Meloidogyne arenaria (setting [2]) came out at 5.3. In addition, the “Number of eggs/root system 78 d” value in the assay with Meloidogyne arenaria (setting [3]) is listed as 453,500 eggs/root system. For the same compound, in the assay on Meloidogyne arenaria (preventive treatment), the “Appearance of root system” value was “darkened decaying roots with numerous galls and egg masses”.

The values are drawn from patent US20100311801A1, “USE OF TETRAMIC ACID DERIVATIVES FOR CONTROLLING NEMATODES” (priority 2007, published 2010).
